# Test: Hygroscopicity, VTI vapor sorption analyzer
# Assay type: physicochemical
# Procedure: Hygroscopicity data was obtained on a VTI Symmetrical Vapor Sorption Analyzer Model SGA-1. Data was collected at room temperature from 5-95% relative humidity and back, 5% relative humidity change per step. Equilibrium conditions were 0.01 weight percent change in 5 minutes with a maximum equilibration time of 180 minutes. […] When equilibrated back down to 5% RH, the material returned back to approximately its dry weight.
structure (smiles),measurement,setting,value
Cc1nnc(C(=O)NC(C)(C)c2nc(C(=O)NCc3ccc(F)cc3)c(O)c(=O)n2C)o1,weight increase when equilibrated at 95% RH,95% RH at 25° C.,1.8%
same,XRPD analysis of the material after the hygroscopicity experiment (phase stability),after 5-95% relative humidity cycle at room temperature,had not changed phases

# Source: US20090136570A1, “Taste-Masked Tablets and Granules” (priority 2006, published 2009)
